Data on 45 molecules can be found in patent US6696451B1 (dated 2004).

For `COC(=O)C1=C(C)NC(c2ncccc2F)=NC1c1ccc(F)cc1` (stereo not drawn), the melting point fell in the range of 127 to 129 °C.

Regarding `CCOC(=O)C1=C(C)NC(c2ncccc2F)=NC1c1ccc(Cl)cc1` (stereo not drawn), the melting point was in the range of 133 to 134 °C.

On to `COC(=O)C1=C(C)NC(c2ncccc2F)=NC1c1ccccc1` (stereo not drawn), for which the melting point lay within 110 to 111 °C.

For `CCOC(=O)C1=C(C)NC(c2ncccc2F)=NC1c1c(F)cccc1F` (stereo not drawn), the melting point was in the range of 140 to 142 °C.

For the molecule `COC(=O)C1=C(C)NC(c2ncccc2F)=NC1c1ccccc1C(F)(F)F` (stereo not drawn), the melting point was in the range of 165 to 167 °C.

With `COC(=O)C1=C(C)NC(c2ncccc2F)=NC1c1c(Cl)cccc1Cl` (stereo not drawn), the melting point is 180 to 182 °C.

`CCOC(=O)C1=C(C)NC(c2ncccc2F)=NC1c1c(Cl)cccc1Cl` (stereo not drawn) gave a melting point of 148 to 149 °C.

As to `COC(=O)C1=C(C)NC(c2ncccc2F)=NC1c1ccc(F)cc1Cl` (stereo not drawn), the melting point lay within 121 to 123 °C.

As to `COC(=O)C1=C(C)NC(c2ccc(C(F)(F)F)cn2)=NC1c1ccccc1Cl` (stereo not drawn), the melting point lay in the range of 121 to 123 °C.

`CCOC(=O)C1=C(C)NC(c2ncccc2Cl)=NC1c1ccccc1Cl` (stereo not drawn): the melting point lay in the range of 138 to 140 °C.

The molecule `COC(=O)C1=C(C)NC(c2ccc(Cl)cn2)=NC1c1ccccc1Cl` (stereo not drawn) had a melting point of 163 to 165 °C.

For `C=CCOC(=O)C1=C(C)NC(c2ncccc2F)=NC1c1ccccc1Cl` (stereo not drawn), the melting point was in the range of 124 to 126 °C.

`CC1=C(C(=O)OCCOc2ccccc2)C(c2ccccc2Cl)N=C(c2ncccc2F)N1` (stereo not drawn) registered a melting point of 123 to 125 °C.

Take `CCOC(=O)C1=C(C)NC(c2ncccc2F)=NC1c1ccc(I)cc1` (stereo not drawn): the melting point was in the range of 145 to 146 °C.

Molecule `COC(=O)C1=C(C2CC2)NC(c2ncccc2F)=NC1c1ccccc1Cl` (stereo not drawn) yielded a melting point of 120 to 122 °C.

In turn, `COC(=O)C1=C(C)NC(c2ncccc2Cl)=NC1c1ccccc1Cl` (stereo not drawn) returned a melting point of 144 to 146 °C.

`COC(=O)C1=C(C)NC(c2ncccc2F)=NC1c1ccc(Cl)c([N+](=O)[O-])c1` (stereo not drawn) yielded a melting point of 135 to 137 °C.

With `COC(=O)C1=C(C)NC(c2ncccc2F)=NC1c1ccccc1Br` (stereo not drawn), the melting point was 143 to 144 °C.

`COC(=O)C1=C(C)NC(c2ncccc2F)=NC1c1ccc(Br)cc1` (stereo not drawn) gave a melting point of 156 to 157 °C.

`CCOC(=O)C1=C(C)NC(c2ncccc2F)=NC1c1ccc(Br)cc1` (stereo not drawn) came in with a melting point of 134 to 135 °C.

Molecule `CCOC(=O)C1=C(C)NC(c2ncccc2F)=NC1c1ccc(O)cc1Cl` (stereo not drawn) showed a melting point of 247 to 248 °C.

For the molecule `CCOC(=O)C1=C(C)NC(c2ncccc2F)=NC1c1ccc(F)cc1` (stereo not drawn), the melting point was 129 to 130 °C.

The molecule `CCOC(=O)C1=C(C)NC(c2ncccc2Cl)=NC1c1ccc(Br)cc1F` (stereo not drawn) returned a melting point of 126 to 127 °C.

Consider `CCOC(=O)C1=C(C)NC(c2ncccc2F)=NC1c1ccc(Br)cc1F` (stereo not drawn), for which the melting point lay in the range of 156 to 158 °C.

As for `CCOC(=O)C1=C(C)NC(c2ncccc2F)=NC1c1ccc(Cl)cc1F` (stereo not drawn), the melting point lay within 162 to 163 °C.

In turn, `CCOC(=O)C1=C(C)NC(c2ncccc2F)=NC1c1ccc(F)cc1C` (stereo not drawn) had a melting point of 167 to 169 °C.

The molecule `CCOC(=O)C1=C(C)NC(c2ncccc2F)=NC1c1ccccc1I` (stereo not drawn) showed a melting point of 163 to 164 °C.

`COC(=O)C1=C(C)NC(c2ncccc2F)=NC1c1ccc(Cl)cc1F` (stereo not drawn) returned a melting point of 120 to 122 °C.

Molecule `COC(=O)C1=C(C)NC(c2ncccc2Cl)=NC1c1ccc(Br)cc1F` (stereo not drawn) registered a melting point of 103 to 104 °C.

As for `COC(=O)C1=C(C)NC(c2ncccc2F)=NC1c1ccccc1Cl.Cl` (stereo not drawn), the melting point was in the range of 210 to 212 °C.

Turning to `CC(=O)C1=C(C)NC(c2ncccc2F)=NC1c1ccccc1Cl` (stereo not drawn), the melting point lay within 132 to 133 °C.

Consider `COC(=O)C1=C(C)NC(c2ncccc2Cl)=NC1c1ccc(F)cc1Cl` (stereo not drawn), for which the melting point lay within 95 to 96 °C.

On to `COC(=O)C1=C(C)NC(c2ncccc2Cl)=NC1c1ccccc1Br` (stereo not drawn), for which the melting point fell in the range of 131 to 132 °C.

Take `CCOC(=O)C1=C(C)NC(c2ncccc2Cl)=NC1c1ccccc1Br` (stereo not drawn): the melting point was in the range of 137 to 138 °C.

On to `COC(=O)C1=C(C)NC(c2ncccc2F)=NC1c1ccc([N+](=O)[O-])cc1` (stereo not drawn), for which the melting point fell in the range of 142 to 143 °C.

In turn, `CCOC(=O)C1=C(C)NC(c2ncccc2F)=NC1c1ccc(Cl)cc1[N+](=O)[O-]` (stereo not drawn) returned a melting point of 184 to 186 °C.

The molecule `CCOC(=O)C1=C(C)NC(c2ncccc2F)=NC1c1cc(Cl)cc(Cl)c1` (stereo not drawn) showed a melting point of 133 to 134 °C.

The molecule `COC(=O)C1=C(C)NC(c2ncccc2F)=NC1c1cc([N+](=O)[O-])c(Cl)cc1F` (stereo not drawn) had a melting point of 135 to 136 °C.

With `COC(=O)C1=C(C)NC(c2ccc(F)cn2)=NC1c1ccc(F)cc1Cl` (stereo not drawn), the melting point stood at 131 °C.

With `CCOC(=O)C1=C(C)NC(c2ccc(F)cn2)=NC1c1ccc(F)cc1Cl` (stereo not drawn), the melting point was found to be 124 °C.

As for `CCOC(=O)C1=C(C)NC(c2ccc(OC)cn2)=NC1c1ccc(F)cc1Cl` (stereo not drawn), the melting point stood at 141 °C.

In the case of `COC(=O)C1=C(C)NC(c2cc(OC)ccn2)=NC1c1ccc(F)cc1Cl` (stereo not drawn), the melting point came out at 132 °C.

In the case of `COC(=O)C1=C(C)NC(c2cccc(C)n2)=NC1c1ccccc1Cl` (stereo not drawn), the melting point was 142 to 143 °C.

With `COC(=O)C1=C(C)NC(c2ncccc2F)=NC1c1ccc(Cl)cc1` (stereo not drawn), the melting point was in the range of 139 to 140 °C.

Regarding `COC(=O)C1=C(C)NC(c2ncccc2F)=NC1c1cccc2ncc(-c3ccccc3)cc12` (stereo not drawn), the melting point was in the range of 174 to 175 °C.

For orientation: melting point means the temperature, or range, at which the solid turns liquid.
